Experimental findings from patent publication US9918981B2, “Liquid buprenorphine formulations” (Insys Development Company, Inc., priority 2013, dated 2018) are described below.

A short description of the data set: Bioavailability of buprenorphine sublingual spray vs Buprenex intramuscular and intravenous injection, crossover study. Conditions: for AUC(0-t) / AUC(inf) / Cmax / Tmax / t½ / λz: overnight fast.
Where [1] appears, read: Intramuscular 0.3 mg (Buprenex injection).
Where [2] appears, read: Intravenous 0.3 mg (Buprenex bolus injection).
Where [3] appears, read: after sublingual administration (1 mg spray).

Text: This was an open-label, 3-treatment, 3-period, 6-sequence, single-dose, randomized crossover study. Eighteen healthy male and female volunteers were randomly assigned to 1 of 6 treatment sequences. Dosing occurred after an overnight fast and there was a minimum 14-day washout between the dosing in two periods.

For the substance Buprenorphine, under setting [1], the “AUC(0-t)” value was found to be 4.97 ± 0.90 ng·h/mL, the “AUC(inf)” value was found to be 5.50 ± 0.83 ng·h/mL, the peak concentration (Cmax) worked out at 1.73 ± 1.08 ng/mL and the Tmax amounted to 0.17 h. Under setting [1], this substance came in with a t½ of 12.0 ± 5.31 h and a λz of 0.0655 ± 0.0210. Also, under setting [2], the “AUC(0-t)” value turned out to be 5.09 ± 1.01 ng·h/mL, the “AUC(inf)” value was found to be 5.51 ± 1.21 ng·h/mL, the peak concentration (Cmax) is on record as 3.95 ± 3.66 ng/mL and the Tmax was 0.083 h. Under setting [2], the t½ turned out to be 9.37 ± 6.49 h and the λz is given as 0.1028 ± 0.0641. Under setting [3], the “absolute bioavailability based on AUC(0-t)” value worked out at 41.03% and the “absolute bioavailability based on AUC(inf)” value stood at 42.57%.

As usually defined, the AUC(0-t) is the area under the concentration-time curve up to a stated or last time point. Read a low AUC(0-t) as less exposure. By Cmax is commonly meant the peak of the concentration-time curve. As a reminder, the Tmax is the time from dosing to the highest level. As a reminder, the t½ is how long it takes for the measured level to halve. A low value points to fast loss.
